For 67 compounds, AC50 results are on record in PubChem BioAssay AID463074 (Broad Institute, 2010).

Each structure is given as a SMILES string. Active and inactive are the calls of the source.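 The calls were made as follows: active = AC50 no more than tenfold above the top dose tested, or full inhibition at every dose with a flat fit (cut at about 19 µM in these data); inconclusive = flat curve fit with inhibition between 30% and 70%, or poor fit; inactive = AC50 more than tenfold above the top dose tested.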

The test system of this test is HMLE_sh_eGFP viability, CellTiter-Glo luminescence, 72 h. Description: cytotoxicity in HMLE control line with eGFP shRNA, dose response, counter-screen for HMLE_sh_ECad selective toxicity project, cell-based, HMLE_sh_eGFP, luminescence (AID 463074).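 Also: counterscreen control line to flag general toxicity for the HMLE_sh_ECad screen; potency for loss of viability as luminescence drops below DMSO wells.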
Consider `O=[N+]([O-])c1ccc(CP(=O)(c2ccccc2)c2ccccc2)cc1`, for which the AC50 – broadly, the concentration at which the activity in the assay is half-maximal – is > 19.5 µM (inactive).

`CCCCCCC[C@@H](C/C=C/CCC(=O)N(C)C/C(=C/Cl)C/C(=C\C(=O)N1CC(OC)=CC1=O)OC)OC`: the AC50 was 5.38 µM.

Consider `N#C/C(=C\c1c(F)cccc1Cl)c1nn(-c2ccccc2)c(-n2cccc2)c1C#N`, for which the AC50 was 1.71 µM.

Regarding `Oc1ccccc1-n1c(-c2ccccc2)ccc1-c1ccccc1`, the AC50 was 7.62 µM.

Consider `C=CCn1c(SCc2c(C)noc2C)nc2sc3c(c2c1=O)CCCCC3`, for which the AC50 is 1.42 µM.

On to `Cc1c(CCOC(=O)C2C3CC4CC(C3)CC2C4)sc[n+]1CC(=O)c1ccc(Br)cc1` (configuration not stated), for which the half-maximal activity concentration (AC50) was 2.44 µM.

With `NC(=O)CC(NC(=O)Cc1cccc2ccccc12)c1ccc(NCc2ccccc2)c([N+](=O)[O-])c1` (configuration not stated), the AC50 was 5.84 µM.

In the case of `COc1ccc(C(=O)Nc2cccc(/C=C/c3nc4ccccc4c(=O)[nH]3)c2)cc1`, the AC50 is 3.58 µM.

As for `COc1ccc(C)cc1NC(=O)CSc1nnc(COc2ccc(Cl)cc2)n1Cc1ccco1`, the AC50 is 8.28 µM.

On to `O=C(NNc1ccc(Cl)cc1)c1cccs1`, for which the AC50 was 1.58 µM.

With `COc1cc(/C=C(/C#N)c2nc3ccccc3[nH]2)ccc1OCC(=O)Nc1ccccc1C`, the AC50 is 1.06 µM.

`O=C(/C=C/c1ccc(F)cc1)c1ccccc1Br`: the AC50 is 3.57 µM.

In the case of `Cc1ccsc1/C=C/c1ccc2cccc(O)c2n1`, the AC50 was 17 µM.

For `O=S(=O)(Nc1ccc(O)c2ccccc12)c1ccc(OC(F)(F)F)cc1`, the AC50 was 12.5 µM.

For `Cc1ccccc1N1CCN(C(=O)c2ccc(Oc3ccc(C(F)(F)F)cn3)cc2)CC1`, the concentration at half-maximal activity (AC50) was 4.66 µM.

For `Cc1ccc(C2C(/C=C3/SC(=S)NC3=O)=C(c3cccs3)Oc3ccccc32)cc1` (configuration not stated), the AC50 was 1.21 µM.

In the case of `COc1cccc(/C=C/c2ccc3ccccc3n2)c1OC(C)=O`, the AC50 was 11.7 µM.

With `Cc1ccc(NC(=O)C(=Cc2ccc(C(=O)O)cc2)C(=O)Nc2ccc(C)cc2C)c(C)c1`, the AC50 is 3.16 µM.

With `CCc1ccc2nc(N(CCCN(C)C)C(=O)c3ccc(S(=O)(=O)N4CCCc5ccccc54)cc3)sc2c1`, the AC50 was 6.98 µM.

Consider `Cc1ccc(/C=N/NC(=O)c2ccc3c(c2)OCCO3)s1`, for which the AC50 was 2.49 µM.

Turning to `S=C(NCCC(c1ccccc1)c1ccccc1)Nc1cccc(Cl)c1`, the concentration at half-maximal activity (AC50) was 2.79 µM.

For `CC1(C)C=Cc2c(ccc3c2OC[C@H](c2ccc(O)cc2O)C3)O1`, the AC50 is 4.43 µM.

Regarding `Cc1cc(C(=O)NNc2ccc(Cl)cc2)no1`, the AC50 is 1.37 µM.

For the compound `COc1cccc(-c2sc3ccc(OC)cc3c2C#CCCO)c1`, the AC50 is 8.26 µM.

As for `O=C1c2cccc3cccc(c23)C(=O)N1CCN1CCN(CC(O)COc2ccc3ccccc3c2)CC1` (configuration not stated), the AC50 is 6.81 µM.

With `CCOc1ccc(NC(=O)Nc2ccc(Cc3ccncc3)cc2)cc1`, the AC50 was 7.84 µM.

With `Cc1cc([N+](=O)[O-])ccc1-c1ccc(C2Nc3ccccc3C(=O)N2O)o1` (configuration not stated), the AC50 was 6.45 µM.

As for `CCN1C(=O)/C(=C\N2CCN(c3cccc(Cl)c3)CC2)SC1=S`, the AC50 is > 19.5 µM (inactive).

For `CCN1CCN(Cc2ccc(NC(=O)c3cc(NC(=O)c4cnn(-c5ccccc5)c4N)cc(OC)c3)cc2C(F)(F)F)CC1`, the AC50 was 6.76 µM.

Turning to `CC(=O)O[C@H]1[C@@H](O)[C@H](O)[C@H](Oc2c(O)c(C)c3c4c2[C@@H](C)CC[C@@H]4[C@@H](C)C[C@H]3C=C(C)C)O[C@H]1C`, the AC50 was 3.57 µM.

As for `CC(C)Cn1c(O)c(N=NC(=O)c2cccc(S(=O)(=O)N3CCCCC3)c2)c2ccccc21`, the AC50 was 1.57 µM.

With `Oc1cccc(/C=C/c2ccc3cccc(O)c3n2)c1`, the AC50 is 4.83 µM.

On to `CCCc1ccc(-c2cc(NC(=O)CSc3nnc(N)s3)n(-c3ccccc3)n2)cc1`, for which the half-maximal activity concentration (AC50) is 6.67 µM.

On to `O=C(O)CCCCCN1C(=O)/C(=C\c2cn(-c3ccccc3)nc2-c2cccs2)SC1=S`, for which the concentration at half-maximal activity (AC50) was 3.5 µM.

With `CC12CCC3C(CC=C4CC(O)CCC43C)C1C/C(=C\c1ccccc1F)C2=O` (configuration not stated), the AC50 was 4.04 µM.

Take `Oc1ccc(/C=N/Nc2ccc(C(F)(F)F)cn2)c(O)c1`: the AC50 is 6.58 µM.

Consider `c1ccc2c(-c3ccc(OCCN4CCCCC4)cc3)c(-c3ccsc3)sc2c1`, for which the AC50 was 2.72 µM.

As to `Cc1ccc(C)c(Cc2c(C)nc3c(C(=O)NCc4ccc5c(c4)OCO5)cnn3c2C)c1`, the AC50 was 19 µM.

As for `CC(=O)Nc1ccc(-c2csc(NC(=O)Cc3cccc(F)c3)n2)cc1`, the AC50 was 5.64 µM.

In the case of `Clc1ccc(C(c2ccccc2Cl)C(Cl)Cl)cc1` (configuration not stated), the AC50 was 6.32 µM.

`Fc1ccc(C(c2ccc(F)cc2)N2CCN(C/C=C/c3ccccc3)CC2)cc1`: the AC50 was 7.18 µM.

As for `Cc1ccc(C)c(-c2csc(N)c2C(=O)OC(C)C)c1`, the AC50 is 8.52 µM.

Take `Cc1cc(S(=O)(=O)c2ccc([N+](=O)[O-])cn2)ccc1Br`: the concentration at half-maximal activity (AC50) was 3.99 µM.

In the case of `CN(C)c1ccc(-n2cccc2/C=C/[N+](=O)[O-])cc1`, the AC50 was 3.63 µM.

Turning to `O=C(Nc1cccc(Cl)c1)Nc1csc([N+](=O)[O-])c1`, the AC50 was 5.64 µM.

For `O=[N+]([O-])c1ccc(COc2ccc(-c3[nH]ncc3-c3ccccc3)c(O)c2)cc1`, the AC50 was 8.38 µM.

Take `COc1cccc(/C=N/Nc2ncnc(Cl)c2N)c1O`: the AC50 is 3.29 µM.

With `COc1ccc(CNCCC(c2ccc(OC(C)C)cc2)c2ccccc2OC)cc1` (configuration not stated), the AC50 was 4.71 µM.

Regarding `COc1ccc(CN(CCC(c2ccccc2)c2ccc(OC(C)C)cc2)C(=O)CCl)cc1OC` (configuration not stated), the AC50 was 1.67 µM.

Regarding `CCOC(=O)c1sc(NC(=O)c2cc(-c3ccccc3C)nc3ccccc23)c(C#N)c1C`, the AC50 is 5.17 µM.

With `CN(C)CCn1c2ccccc2c2nc3ccc([N+](=O)[O-])cc3cc21`, the AC50 is 15.6 µM.

Take `Cc1cc(/C=C2\SC(=S)N(Cc3ccco3)C2=O)c(C)n1-c1ccccc1`: the half-maximal activity concentration (AC50) was 2.92 µM.

Regarding `O=c1[nH]c(/C(Cl)=C/c2cc(Cl)ccc2O)nc2cc(Cl)ccc12`, the AC50 was 2.37 µM.

On to `COc1cc(OC)cc(C(=O)NCCNc2nc3cc(C)cc(C)c3cc2C#N)c1`, for which the AC50 is > 19.5 µM (inactive).

As to `CNC(C)C(=O)NC(C(=O)N1CCCC1C(=O)NNc1ccccc1)C(C)C` (configuration not stated), the AC50 is 6.41 µM.

As to `CN(C)c1ccc(/C=C2\CCC/C(=C\c3ccccc3)C2=O)cc1`, the AC50 is 5.47 µM.

For `CN(C)c1ccc(-c2cc(O)c3ncccc3c2)cc1`, the concentration at half-maximal activity (AC50) was 12.8 µM.

In the case of `COc1cccc(/C=N/Nc2ncc(C(F)(F)F)cc2Cl)c1O`, the AC50 is 0.665 µM.

As for `CC(C)c1ccc(NC(=O)C(c2ccccc2)N(C)C(=O)CCc2c[nH]c3ccccc23)cc1` (configuration not stated), the AC50 was 7.92 µM.

Regarding `COc1cc(CNC(C)c2ccccc2)cc(Br)c1OCc1ccccc1` (configuration not stated), the concentration at half-maximal activity (AC50) was 6.75 µM.

For the compound `Cc1ccc(C(=O)NC2c3ccccc3-c3ccccc32)cc1`, the half-maximal activity concentration (AC50) was 0.816 µM.

As to `COc1cc(-c2noc(C)c2C#Cc2ccccn2)cc(OC)c1OC`, the AC50 was 1.16 µM.

For the compound `O=C(CN(c1ccc(Cl)cc1)S(=O)(=O)c1ccc(Cl)c([N+](=O)[O-])c1)NCCc1ccc(F)cc1`, the AC50 is 3.81 µM.

Regarding `Cc1ccc(OCCCCN(C)Cc2ccccc2)c(Br)c1`, the AC50 was 12.5 µM.

As to `COc1ccc(NC(=O)c2ccc(COc3ccccc3Br)o2)c(OC)c1`, the AC50 is 3.67 µM.

As for `CN[C@H]1CCc2cc(OC)c(OC)c(OC)c2-c2ccc(N(C)CC(OC)OC)c(=O)cc21`, the concentration at half-maximal activity (AC50) was 2.15 µM.

Turning to `C=C(C)COc1ccc(-c2nc(N)ncc2-c2ccc(Br)cc2)c(O)c1`, the AC50 was 7.37 µM.
